{"source": "patent US20090062124A1", "about": "“Ethephon-induced enhancement of seedling development” (priority 2007, published 2009)", "assay_type_in_all_cases": "in vivo", "key": {"Corn seedlings": {"tested_on": "Corn seedlings", "test": "Corn seedlings sprayed with ethephon in greenhouse conditions", "method": "(§1) The effects of ethephon treatment on the root development of corn and wheat was evaluated. Corn and wheat seedlings at the two to three leaf stage were treated with ethephon in greenhouse conditions. All plants in the treatment groups received a single application by spraying of various concentrations of aqueous solutions of ethephon (0, 1.0, 3.8, 7.6, 11.4, 15.2 and 30.4 mM ethephon for wheat, and 0, 3.8, 5.7, 7.6, 11.4, 15.2, 30.4, 45.6, and […] ethephon for corn) to plants at the cotyledon stage. Root development, measured as tap root and lateral root lengths for corn and tap root length for wheat, and shoot length and root hair production were also determined for wheat, seven days after spraying. To evaluate the effect on as a seed treatment, wheat and corn seeds were soaked in aqueous ethephon solutions (90 mM) for 10 seconds prior to planting."}, "cotton seeds": {"tested_on": "cotton seeds", "test": "Cotton seeds soaked in aqueous ethephon solutions prior to planting", "settings": "seeds soaked 10 seconds; 10, 20, 30 and 50 mM tested", "method": "(§2) Cotton plants were treated with ethephon in greenhouse conditions to evaluate the effects of ethephon application. All plants in the treatment groups received a single application by spraying of various concentrations of aqueous solutions of ethephon (0, 1.0, 3.8, 7.6, and 15.2 mM ethephon) to plants at the cotyledon stage. Lateral root production, leaf numbers and leaf size, and number of cotton squares were determined 7 to 80 days after spraying. To evaluate the effect on as a seed treatment, cotton seeds were soaked in aqueous ethephon solutions (10, 20, 30, and 50 mM) for 10 seconds prior to planting."}, "[1]": {"tested_on": "Soybean seedlings (46G02 RR/STS, Kelly Green Seeds)", "test": "Soybean seedlings sprayed with ethephon in greenhouse conditions", "method": "Soybean seedlings (46G02 RR/STS, Kelly Green Seeds) at the cotyledon—second leaf stage were treated with ethephon in greenhouse conditions to evaluate the effects of ethephon application. All plants in the treatment groups received a single application by spraying of various concentrations of aqueous solutions of ethephon (0, 1.0, 3.8, 7.6, and 15.2 mM ethephon) to plants at the cotyledon stage. Root development, measured as tap root and lateral root lengths, and seedling growth were determined 7 days after spraying."}, "[2]": {"tested_on": "dryland field grown cotton", "test": "Dryland field grown cotton sprayed with ethephon, seed cotton yield", "settings": "3.8 mM single spray at cotyledon, two leaf or four leaf stage; vs non-treated controls; FIG. 1", "method": "The effects of ethephon treatment on dryland field grown cotton were measured. All plants in the treatment groups received a single application by spraying of 3.8 mM ethephon at either the cotyledon stage, two leaf stage, and four leaf stage. Cotton yields, measured as seed cotton weight, were measured at the end of the season following harvest."}, "wheat seedlings": {"tested_on": "wheat seedlings", "test": "Wheat seedlings sprayed with ethephon in greenhouse conditions", "settings": "between 1 mM and 7.6 mM ethephon, seven days after spraying, vs untreated controls", "method": "as §1"}, "Cotton plants": {"tested_on": "Cotton plants", "test": "Cotton plants sprayed with ethephon at the cotyledon stage in greenhouse conditions", "method": "as §2"}, "[3]": {"settings": "between 3.8 and 11.4 mM ethephon, seven days after spraying, vs untreated controls"}, "[4]": {"settings": "7 days after spraying, vs untreated controls"}, "[5]": {"settings": "spray, 0, 1.0, 3.8, 7.6 and 15.2 mM tested"}, "[6]": {"settings": "sprayed cotton, 7 to 80 days after spraying"}}, "note": "Values joined by “and” are separate entries in the source; they are usually repeats but may differ in a detail not shown here. Identical values can stand only once."}
{"molecule": "O=P(O)(O)CCCl", "note": "[Ethephon, (2-chloroethyl)phosphonic acid]", "values": [{"measurement": "lateral root length", "setting": "Corn seedlings; [3]", "value": "statistically significant increases"}, {"measurement": "taproot length", "setting": "Corn seedlings; [3]", "value": "statistically significant increases"}, {"measurement": "ethephon concentration giving optimum results", "setting": "Corn seedlings; spray, FIG. 4", "value": 7.6, "unit": "mM"}, {"measurement": "optimum seed soak concentration", "setting": "cotton seeds", "value": 30, "unit": "mM"}, {"measurement": "seedling growth", "setting": "[1]; [4]", "value": "statistically significant increases"}, {"measurement": "taproot and lateral root development", "setting": "[1]; [4]", "value": "statistically significant increases"}, {"measurement": "ethephon concentration giving optimum results", "setting": "[1]; [5]", "value": 3.8, "unit": "mM"}, {"measurement": "cotton yields (seed cotton weight)", "setting": "[2]", "value": "significantly increased yields"}, {"measurement": "shoot length", "setting": "wheat seedlings", "value": "statistically significant increases"}, {"measurement": "taproot length", "setting": "wheat seedlings", "value": "statistically significant increases"}, {"measurement": "increase in fruiting sites (cotton squares)", "setting": "Cotton plants; 3.8 mM ethephon vs control", "value": 30, "unit": "%"}, {"measurement": "Average # of squares", "setting": "Cotton plants; 3.8 mM ethephon, single spray at cotyledon stage, greenhouse, average of 3 reps (control 42)", "value": 55}, {"measurement": "Number of squares", "setting": "Cotton plants; 3.8 mM ethephon, single spray at cotyledon stage, greenhouse, per rep", "value": "58 and 54 and 53"}, {"measurement": "ethephon concentration giving optimum results", "setting": "Cotton plants; [5]", "value": 3.8, "unit": "mM"}, {"measurement": "fruiting (number of cotton squares)", "setting": "Cotton plants; [6]", "value": "increased fruiting"}, {"measurement": "lateral root development", "setting": "Cotton plants; [6]", "value": "statistically significant increases"}, {"measurement": "leaf size", "setting": "Cotton plants; [6]", "value": "without a decrease in leaf size"}, {"measurement": "rate of leaf production (measured as numbers of leaves)", "setting": "Cotton plants; [6]", "value": "statistically significant increases"}]}
